Laboratory results taken from ChEMBL document CHEMBL5331140, “Discovery of IACS-52825, a Potent and Selective DLK Inhibitor for Treatment of Chemotherapy-Induced Peripheral Neuropathy” (J Med Chem, 2023).
In brackets after ≈: the same amount, converted by molar mass.

Columns and labels:
[1] = Plasma protein binding in mouse at 5 uM incubated for 5 hrs by rapid equilibrium dialysis method; type: ADME, cell-free; conditions: read-out: PPB (converted)
[2] = Metabolic stability in mouse liver microsomes assessed as intrinsic clearance at 1 uM in presence of NADPH regenerating system measured for 45 mins by LC-MS/MS analysis; type: ADME, Microsome; conditions: read-out: CLH
[3] = Half life in Beagle dog at 1 mg/kg, po or 0.3 mg/kg, iv measured for 24 hrs by LC-MS/MS analysis; type: ADME, organism-based, Canis lupus familiaris; conditions: in vivo
[4] = Metabolic stability in monkey hepatocytes assessed as intrinsic clearance at 2 uM measured for 120 mins by LC-MS analysis; type: ADME, cell-based, Macaca mulatta, Hepatocyte; conditions: rhesus monkey, read-out: CLH
Cytochrome P450 2C19 = Cytochrome P450 2C19 (Homo sapiens, UniProt P33261); assay: Inhibition of CYP2C19 in human liver microsomes using S-mephenytoin as substrate incubated for 45 mins in presence of NADPH by LC-MS/MS analysis; type: ADME, Microsome
Chain of Cytochrome P450 2C19 (P33261 whole entry): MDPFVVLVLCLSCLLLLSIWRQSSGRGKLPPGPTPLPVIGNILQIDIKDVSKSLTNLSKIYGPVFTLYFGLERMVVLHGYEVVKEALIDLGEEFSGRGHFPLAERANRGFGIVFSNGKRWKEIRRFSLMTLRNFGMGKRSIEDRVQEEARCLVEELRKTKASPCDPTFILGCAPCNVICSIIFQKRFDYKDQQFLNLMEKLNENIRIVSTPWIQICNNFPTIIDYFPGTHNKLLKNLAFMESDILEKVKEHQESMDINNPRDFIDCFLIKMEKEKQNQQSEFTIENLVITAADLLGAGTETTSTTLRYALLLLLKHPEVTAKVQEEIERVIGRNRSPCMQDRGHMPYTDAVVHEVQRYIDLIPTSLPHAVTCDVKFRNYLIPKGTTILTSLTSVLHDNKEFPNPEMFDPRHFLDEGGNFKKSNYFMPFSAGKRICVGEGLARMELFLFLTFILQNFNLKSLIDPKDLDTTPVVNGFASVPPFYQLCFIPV

[5] = Toxicity in rat measured after 14 days by IND-enabling study; conditions: in vivo, 336 h, time 14 day
[6] = Thermodynamic aqueous solubility of compound in FaSSGF at pH 1.6 incubated for 1 hr under shaking condition by LC-MS/MS analysis; type: physicochemical; conditions: read-out: Therm_solubility
[7] = Cmax in cynomolgus monkey at 1 mg/kg, po or 0.3 mg/kg, iv measured for 24 hrs by LC-MS/MS analysis; type: ADME, organism-based, Macaca fascicularis; set-up: dose 1 mg/kg, time 24 hrs, route po; conditions: in vivo
[8] = Toxicity in monkey measured after 7 days by IND-enabling study; set-up: species or system Macaca mulatta; conditions: rhesus monkey, in vivo, 168 h; time 7 day
[9] = Plasma clearance in C57BL/6 mouse at 0.3 mg/kg, iv administered via tail vein and measured for 24 hrs by LC-MS/MS analysis; type: ADME, organism-based
[10] = Metabolic stability in mouse hepatocytes assessed as intrinsic clearance at 2 uM measured for 120 mins by LC-MS analysis; type: ADME, cell-based, Hepatocyte; conditions: read-out: CLH
[11] = Oral bioavailability in C57BL/6 mouse at 10 mg/kg administered via oral gavage and measured for 24 hrs by LC-MS/MS analysis; type: ADME, organism-based; conditions: C57BL/6, mouse, in vivo
Cytochrome P450 3A4 = Cytochrome P450 3A4 (Homo sapiens, UniProt P08684); assay: Inhibition of CYP3A4 in human liver microsomes using testosterone as substrate incubated for 5 mins in presence of NADPH by LC-MS/MS analysis; type: ADME, Microsome
Chain of Cytochrome P450 3A4 (P08684 whole entry): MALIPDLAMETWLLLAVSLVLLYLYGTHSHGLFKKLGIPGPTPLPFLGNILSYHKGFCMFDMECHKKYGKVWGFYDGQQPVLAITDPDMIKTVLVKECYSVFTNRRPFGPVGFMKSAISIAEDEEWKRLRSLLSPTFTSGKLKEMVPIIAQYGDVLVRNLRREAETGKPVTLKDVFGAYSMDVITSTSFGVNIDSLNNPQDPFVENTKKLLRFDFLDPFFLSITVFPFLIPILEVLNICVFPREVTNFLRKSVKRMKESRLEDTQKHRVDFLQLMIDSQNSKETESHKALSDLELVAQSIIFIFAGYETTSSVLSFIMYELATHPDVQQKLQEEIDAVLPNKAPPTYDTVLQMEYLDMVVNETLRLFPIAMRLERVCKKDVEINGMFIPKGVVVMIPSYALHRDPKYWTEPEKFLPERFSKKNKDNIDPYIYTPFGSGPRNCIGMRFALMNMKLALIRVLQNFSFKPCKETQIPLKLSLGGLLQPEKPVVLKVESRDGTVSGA

[12] = Metabolic stability in human hepatocytes assessed as intrinsic clearance at 2 uM measured for 120 mins by LC-MS analysis; type: ADME, cell-based, Hepatocyte; conditions: read-out: CLH
[13] = Volume of distribution at steady state in Beagle dog at 1 mg/kg, po or 0.3 mg/kg, iv measured for 24 hrs by LC-MS/MS analysis; type: ADME, organism-based, Canis lupus familiaris; conditions: in vivo
[14] = Permeability in MDCK-MDR1 cells across apical to basolateral side at 5 uM incubated for 90 mins by LC-MS/MS analysis; type: ADME, cell-based, Canis lupus familiaris; conditions: dog, read-out: permeability
[15] = Permeability in MDCK-MDR1 cells across basolateral to apical side at 5 uM incubated for 90 mins by LC-MS/MS analysis; type: ADME, cell-based, Canis lupus familiaris; conditions: dog, read-out: permeability
[16] = Cmax in C57BL/6 mouse at 10 mg/kg administered via oral gavage and measured for 24 hrs by LC-MS/MS analysis; type: ADME, organism-based; set-up: dose 10 mg/kg, time 24 hrs, route po; conditions: in vivo
[17] = Metabolic stability in monkey liver microsomes assessed as intrinsic clearance at 1 uM in presence of NADPH regenerating system measured for 45 mins by LC-MS/MS analysis; type: ADME, Macaca mulatta, Microsome; conditions: rhesus monkey, read-out: CLH
Cytochrome P450 2C9 = Cytochrome P450 2C9 (Homo sapiens, UniProt P11712); assay: Inhibition of CYP2C9 in human liver microsomes using diclofenac as substrate incubated for 10 mins in presence of NADPH by LC-MS/MS analysis; type: ADME, Microsome
Chain of Cytochrome P450 2C9 (P11712 whole entry): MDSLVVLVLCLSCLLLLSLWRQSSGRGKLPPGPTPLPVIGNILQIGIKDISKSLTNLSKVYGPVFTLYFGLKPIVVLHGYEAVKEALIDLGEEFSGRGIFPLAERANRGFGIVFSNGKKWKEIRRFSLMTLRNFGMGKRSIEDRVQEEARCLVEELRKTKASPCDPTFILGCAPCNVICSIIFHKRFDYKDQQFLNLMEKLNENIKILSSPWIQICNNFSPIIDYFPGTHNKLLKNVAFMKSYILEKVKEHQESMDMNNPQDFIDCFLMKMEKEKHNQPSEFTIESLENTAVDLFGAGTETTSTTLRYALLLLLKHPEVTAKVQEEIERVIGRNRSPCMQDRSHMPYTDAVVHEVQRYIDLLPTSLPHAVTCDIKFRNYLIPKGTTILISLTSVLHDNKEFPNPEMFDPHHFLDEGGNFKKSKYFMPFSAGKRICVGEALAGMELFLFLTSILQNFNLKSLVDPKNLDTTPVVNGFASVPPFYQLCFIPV

[18] = Metabolic stability in dog liver microsomes assessed as intrinsic clearance at 1 uM in presence of NADPH regenerating system measured for 45 mins by LC-MS/MS analysis; type: ADME, Canis lupus familiaris, Microsome; conditions: read-out: CLH
[19] = Thermodynamic aqueous solubility of compound in FaSSIF at pH 6.5 incubated for 1 hr under shaking condition by LC-MS/MS analysis; type: physicochemical; conditions: read-out: Therm_solubility
[20] = Toxicity in monkey assessed as optic nerve swelling measured after 28 days by IND-enabling study; set-up: species or system Macaca mulatta; conditions: rhesus monkey, in vivo, 672 h; time 28 day
[21] = Thermodynamic aqueous solubility of compound in phosphate buffer at pH 7 incubated for 1 hr under shaking condition by LC-MS/MS analysis; type: physicochemical; conditions: read-out: Therm_solubility
[22] = AUClast in Sprague-Dawley rat at 3 mg/kg, po or 1 mg/kg, iv measured for 24 hrs by LC-MS/MS analysis; type: ADME, organism-based; set-up: time 24 hrs, dose 3 mg/kg, route po; conditions: in vivo
[23] = AUClast in cynomolgus monkey at 1 mg/kg, po or 0.3 mg/kg, iv measured for 24 hrs by LC-MS/MS analysis; type: ADME, organism-based, Macaca fascicularis; set-up: dose 1 mg/kg, time 24 hrs, route po; conditions: in vivo
[24] = Plasma protein binding in dog at 5 uM incubated for 5 hrs by rapid equilibrium dialysis method; type: ADME, cell-free, Canis lupus familiaris; conditions: read-out: PPB (converted)
[25] = Metabolic stability in rat hepatocytes assessed as intrinsic clearance at 2 uM measured for 120 mins by LC-MS analysis; type: ADME, cell-based, Hepatocyte; conditions: read-out: CLH
[26] = AUClast in Beagle dog at 1 mg/kg, po or 0.3 mg/kg, iv measured for 24 hrs by LC-MS/MS analysis; type: ADME, organism-based, Canis lupus familiaris; set-up: time 24 hrs, dose 1 mg/kg, route po; conditions: in vivo
[27] = Thermodynamic aqueous solubility of compound in FeSSIF at pH 5 incubated for 1 hr under shaking condition by LC-MS/MS analysis; type: physicochemical; conditions: read-out: Therm_solubility
[28] = Oral bioavailability in Sprague-Dawley rat at 3 mg/kg measured for 24 hrs by LC-MS/MS analysis; type: ADME, organism-based; conditions: in vivo
[29] = Protein binding in mouse brain homogenate incubated for 5 hrs by UPLC-MS/MS analysis; type: ADME, tissue-based; conditions: read-out: PB (converted)
[30] = Bioavailability in Beagle dog at 1 mg/kg, po or 0.3 mg/kg, iv measured for 24 hrs by LC-MS/MS analysis; type: ADME, organism-based, Canis lupus familiaris; conditions: in vivo
[31] = target: Voltage-gated inwardly rectifying potassium channel KCNH2 (Homo sapiens, UniProt Q12809)
Chain of Voltage-gated inwardly rectifying potassium channel KCNH2 (Q12809 whole entry): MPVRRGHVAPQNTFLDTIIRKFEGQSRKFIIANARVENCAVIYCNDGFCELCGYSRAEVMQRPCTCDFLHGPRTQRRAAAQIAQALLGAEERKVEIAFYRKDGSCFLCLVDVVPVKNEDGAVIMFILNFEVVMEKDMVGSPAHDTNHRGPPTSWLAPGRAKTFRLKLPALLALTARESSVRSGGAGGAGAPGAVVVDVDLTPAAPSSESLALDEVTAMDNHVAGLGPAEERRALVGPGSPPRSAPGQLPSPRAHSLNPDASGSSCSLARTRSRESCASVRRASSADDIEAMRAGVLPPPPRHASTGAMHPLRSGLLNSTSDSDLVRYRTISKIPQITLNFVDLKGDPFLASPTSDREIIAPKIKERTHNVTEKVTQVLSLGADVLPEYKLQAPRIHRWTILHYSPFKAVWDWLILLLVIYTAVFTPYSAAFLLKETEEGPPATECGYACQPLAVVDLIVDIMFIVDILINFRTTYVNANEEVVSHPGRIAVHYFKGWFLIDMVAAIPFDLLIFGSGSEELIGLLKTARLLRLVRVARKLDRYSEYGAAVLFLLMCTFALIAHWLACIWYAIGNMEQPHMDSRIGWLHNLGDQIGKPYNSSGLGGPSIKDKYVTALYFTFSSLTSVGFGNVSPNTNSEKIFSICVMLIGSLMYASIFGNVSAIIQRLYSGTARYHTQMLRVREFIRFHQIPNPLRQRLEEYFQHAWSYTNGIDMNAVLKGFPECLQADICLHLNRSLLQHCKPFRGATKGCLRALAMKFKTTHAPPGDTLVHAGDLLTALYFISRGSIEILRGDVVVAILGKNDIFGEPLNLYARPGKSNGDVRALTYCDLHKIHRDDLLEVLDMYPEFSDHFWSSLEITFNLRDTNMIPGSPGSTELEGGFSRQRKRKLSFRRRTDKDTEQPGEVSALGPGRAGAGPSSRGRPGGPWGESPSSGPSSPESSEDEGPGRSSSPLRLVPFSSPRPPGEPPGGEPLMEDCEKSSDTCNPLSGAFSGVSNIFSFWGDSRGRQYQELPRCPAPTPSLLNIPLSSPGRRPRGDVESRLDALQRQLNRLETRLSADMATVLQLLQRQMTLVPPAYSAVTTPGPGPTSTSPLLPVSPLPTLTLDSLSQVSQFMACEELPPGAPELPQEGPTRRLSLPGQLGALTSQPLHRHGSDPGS
Description: Inhibition of hERG expressed in CHO cells at -80 mV holding potential by QPatch automated electrophysiology assay

[32] = Volume of distribution at steady state in Sprague-Dawley rat at 3 mg/kg, po or 1 mg/kg, iv measured for 24 hrs by LC-MS/MS analysis; type: ADME, organism-based; conditions: in vivo
[33] = Bioavailability in cynomolgus monkey at 1 mg/kg, po or 0.3 mg/kg, iv measured for 24 hrs by LC-MS/MS analysis; type: ADME, organism-based, Macaca fascicularis; conditions: in vivo
[34] = Cmax in Beagle dog at 1 mg/kg, po or 0.3 mg/kg, iv measured for 24 hrs by LC-MS/MS analysis; type: ADME, organism-based, Canis lupus familiaris; set-up: time 24 hrs, dose 1 mg/kg, route po; conditions: in vivo
[35] = Cmax in Sprague-Dawley rat at 3 mg/kg, po or 1 mg/kg, iv measured for 24 hrs by LC-MS/MS analysis; type: ADME, organism-based; set-up: time 24 hrs, dose 3 mg/kg, route po; conditions: in vivo
[36] = AUClast in C57BL/6 mouse at 10 mg/kg administered via oral gavage and measured for 24 hrs by LC-MS/MS analysis; type: ADME, organism-based; set-up: time 24 hrs, dose 10 mg/kg, route po; conditions: in vivo
[37] = Half life in cynomolgus monkey at 1 mg/kg, po or 0.3 mg/kg, iv measured for 24 hrs by LC-MS/MS analysis; type: ADME, organism-based, Macaca fascicularis; conditions: in vivo
[38] = Metabolic stability in dog hepatocytes assessed as intrinsic clearance at 2 uM measured for 120 mins by LC-MS analysis; type: ADME, cell-based, Canis lupus familiaris, Hepatocyte; conditions: read-out: CLH
[39] = Permeability in wild type MDCK cells across apical to basolateral side at 5 uM incubated for 90 mins by LC-MS/MS analysis; type: ADME, cell-based, Canis lupus familiaris; conditions: dog, read-out: permeability

`Nc1ncc(-c2cn(C34CC(F)(C3)C4)c([C@@H](O)C(F)(F)F)n2)cc1OC(F)(F)F` showed a fraction unbound at 5 h, 5 µM [1] of 0.075, a CLint scaled at 1 µM [2] of 14 mL/min/kg and a half-life [3] of 8.5 h. For the same compound, the CLint scaled at 2 µM [4] was 23 mL/min/kg, the IC50 (Cytochrome P450 2C19) was > 10 µM and the Activity [5] was “Non-Toxic”. The solubility thermodynamic at 1 h [6] was 20600 µM (≈ 8790 µg/mL), the Cmax [7] was 350 nM and the Activity [8] was “Non-Toxic”. For the same compound, the clearance [9] was 4.3 mL/min/kg, the CLint scaled at 2 µM [10] was 2.5 mL/min/kg and the bioavailability [11] was > 100%. The IC50 (Cytochrome P450 3A4) was > 10 µM, the CLint scaled at 2 µM [12] was 11 mL/min/kg and the Vdss [13] was 3.5 L/kg. For the same compound, the Papp A→B at 1.5 h, 5 µM [14] was 43 ×10⁻⁶ cm/s, the Papp B→A at 1.5 h, 5 µM [15] was 43 ×10⁻⁶ cm/s and the Cmax [16] was 6400 nM. The CLint scaled at 1 µM [17] was 11 mL/min/kg, the IC50 (Cytochrome P450 2C9) was > 10 µM and the CLint scaled at 1 µM [18] was 12 mL/min/kg. The solubility thermodynamic at 1 h [19] was 38 µM (≈ 16.2 µg/mL), the Activity [20] was “Toxic” and the solubility thermodynamic at 1 h [21] was 33 µM (≈ 14.1 µg/mL). The AUC(0-t) at 24 h [22] was 16.8 µM·h, the AUC(0-t) at 24 h [23] was 4.7 µM·h and the fraction unbound at 5 h, 5 µM [24] was 0.053. It also gave a CLint scaled at 2 µM [25] of 4.4 mL/min/kg, an AUC(0-t) at 24 h [26] of 15.3 µM·h and a solubility thermodynamic at 1 h [27] of 152 µM (≈ 64.8 µg/mL). The bioavailability [28] was 95%, the fraction unbound at 5 h [29] was 0.039 and the bioavailability [30] was > 100%. For the same compound, the IC50 [31] was > 30 µM, the Vdss [32] was 5.6 L/kg and the bioavailability [33] was > 100%. For the same compound, the Cmax [34] was 1200 nM, the Cmax [35] was 1300 nM and the AUClast [36] was 111 µM·h. The half-life [37] was 7.2 h, the CLint scaled at 2 µM [38] was 9.2 mL/min/kg and the Papp A→B at 1.5 h, 5 µM [39] was 38 ×10⁻⁶ cm/s.
